Measured values published in patent US9018244B2, “Benzopyran compounds, compositions and uses thereof” (Olema Pharmaceuticals, Inc., priority 2011, dated 2015).
“Also recorded” adds a separate entry of the source.

Tests used:
[1] = Single dose oral pharmacokinetics study in female rats; type: in vivo, female Sprague Dawley rats
Experimental: The oral bioavailabilty in rats of OP-1038 was determined in the following study. 3 rats (female Sprague Dawley, non-fasted) were dosed by oral gavage (5 mg/kg body weight) in 0.5% CMC in water with a comparison to intravenous dosing (3 mg/kg body weight). Plasma was collected at the following hourly time points from rats in both groups (0, 0.08, 1.0, 2.0, 4.0, 8.0, 16.0, 24.0, 48.0 and 96.0 hours post dosing). Plasma concentrations of OP-1038 were determined by HPLC.

[2] = tested on: alkaline phosphatase (AP) activity in ECC-1 cells; assay: Alkaline phosphatase (AP) assay in ECC-1 cells, agonist mode (without E2); type: cell-based, human; conditions: without E2, 3 days
Text: FIG. 2. Alkaline phosphatase (AP) activity in ECC-1 cells correlates with the uterine wet weight of ovariectomized rats, as reported previously in Scafonas, et al. (*; Scafonas et al. “Agonist-like SERM effects on ER alpha-mediated repression of MMPI promoter activity predict in vivo effects on bone and uterus. J Steroid Biochem Mol. Biol. 2008 110(3-5):197-206) and Labrie, et al. (†; Labrie et al. “The combination of a novel selective estrogen receptor modulator with an estrogen protects the mammary gland and uterus in a rodent model: the future of postmenopausal women's health?” Endocrinology. 2003 144(11):4700-6). ECC-1 cells were treated with 500 pM 17β-estradiol (E2) or 1-5 nM anti-estrogens in hormone-depleted medium for 3 days. […] AP activity was measured by incubating a chromogenic AP substrate, p-nitrophenyl phosphate, at 40° C. for 40 minutes followed by measuring the absorbance at 405 nm. […]
FIG. 3. […] ECC-1 cells were treated with 100 nM anti-estrogens and AP activity was measured as described in FIG. 2. […] Note that OP-1038 was statistically different from Aragon Compound 28 (WO2011/156518), EM-343 and Gauthier compound Ia (p≦0.01 (exact p values stated in graph), calculated using Student's t-test).
Method for performing the alkaline phosphatase (AP) assay. […] Absorbance was read at 405 nm using a plate spectophotometer. […]

[3] = tested on: MCF-7 HER2/neu Clone 18 xenograft; assay: Mammary tumor xenograft study; type: in vivo, ovariectomized athymic nude mice; conditions: 100 mg/kg twice daily by oral gavage, mice implanted with estrogen pellets
Text: FIG. 13. […] A) Percent change in tumor volume of human MCF-7 HER2/neu clone 18 xenografts in ovariectomized athymic nude mice implanted with estrogen pellets and treated with either tamoxifen (by oral gavage), fulvestrant (Faslodex) by s.c. injection, or OP-1074 (by oral gavage). B) Weights of the animals treated as above. C) Waterfall plot of final tumor volumes compared with volumes at the start of treatment.
The purpose of this study is to examine the ability of OP-1074, to slow or shrink a tamoxifen resistant tumor (MCF-7 HER2/neu Clone 18) xenograft growing on ovariectomized athymic nude mice under stimulation from exogenous estrogen. Clone 18 cells grown in culture are implanted along with 0.18 mg estradiol/90 day release pellets (Innovative Research, Sarasota Fla.) into 55 mice to initiate the experiment. When the tumors have reached 250 cubic millimeters the mice are divided into four groups of 10 mice each and dosing initiated. The four groups are:
1) No hormonal treatment—this group receives daily gavage with vehicle.
2) Tamoxifen citrate 100 mg/kg daily by oral gavage in vehicle.
3) Faslodex 100 mg/kg delivered daily by subcutaneous injection.
4) OP-1074 100 mg/kg twice daily by oral gavage in vehicle with the exception of two weekends in which dosing was once daily.

[4] = Sprague-Dawley, rat, plasma, Oral, 5.00 mg/kg, female S.D. rats

Row | AUCextrap ([1]; Oral, 5.00 mg/kg, female S.D. rats) [%] | bioavailability ([1]; Sprague-Dawley, rat, plasma, Oral 5 mg/kg compared to intravenous 3 mg/kg, female S.D. rats, read-out: F % (Oral bioavailability)) [%] | Cmax ([1]; Sprague-Dawley, rat, plasma, Oral, 5.00 mg/kg, 0.5% CMC, female S.D. rats) [ng/mL] | AUC(0-inf) [1, 4] [ng·h/mL] | MRT last [1, 4] [h] | Tmax [1, 4] [h] | half-life [1, 4] [h] | AUC(0-t) ([1]; Sprague-Dawley, rat, plasma, Oral, 5.00 mg/kg, female S.D. rats, read-out: AUClast (0 to 96 h)) [ng·h/mL] | Oral bioavailability (in words) ([1]; oral gavage 5 mg/kg in rats) | Compound | Estrogenic activity: AP activity, percent induction relative to E2 [2] | Tumor volume change of xenografts [3]
1 | 10.1 ± 6.26 | 18.9 | 24.8 ± 3 | 671 ± 44.8 | 25.9 ± 3.37 | 2.33 ± 1.53 | 28.5 ± 11.6 | 603 ± 46.7 | orally bioavailable | CC1=C(c2ccc(O)cc2)C(c2ccc(OCCN3CC[C@@H](C)C3)cc2)Oc2cc(O)ccc21 (stereo partly drawn) [OP-1038, 3-(4-hydroxyphenyl)-4-methyl-2-(4-{2-[(3R)-3-methylpyrrolidin-1-yl]ethoxy}phenyl)-2H-chromen-7-ol] | lacks estrogenic activity; also recorded: less estrogenic than Aragon Compound 28 | 
2 |  |  |  |  |  |  |  |  |  | CC1=C(c2ccc(O)cc2)[C@H](c2ccc(OCCN3CC[C@@H](C)C3)cc2)Oc2cc(O)ccc21 [OP-1074, (2S)-3-(4-hydroxyphenyl)-4-methyl-2-(4-{2-[(3R)-3-methylpyrrolidin-1-yl]ethoxy}phenyl)-2H-chromen-7-ol] | essentially no estrogenic activity; also recorded: lack estrogenic activity; also recorded: did not stimulate AP activity | rapid and complete regression
